Measured values as given in patent publication US4028383A, “Indolopyrones having antiallergic activity” (Warner-Lambert Company, priority 1975, dated 1977).

Test system: PCA reaction
Assay: passive cutaneous anaphylaxis (PCA) procedure
Assay type: in vivo, male rats
Conditions: for % Inhibition: rats, 30 minutes prior to challenge
Procedure: In this procedure, male rats, between 180 and 200 grams in weight are passively sensitized forty-eight or seventy-two hours prior to test with rat sera containing reagintype antibodies. These sera are injected intradermally in four separate sites, two on each side of the ventral midline. Dose volume is 0.1 ml.
On the test-day animals receive drug or vehicle (placebo) 30 minutes prior to challenge. Test compounds are given i.p. on an mg/kg basis; usual volume is 0.5 ml/100 g body weight. Controls receive the vehicle, on the same weight-volume basis.
The challenging dose of 1.0 ml of Antigen-Evans Blue is administered i.v. This is prepared from either Ovalbumin or dinitrophenylated bovine gamma globulin, 10 mg, together with 5 ml of 0.5% Evans Blue, U.S.P., and 5 ml of normal saline. At 30 minutes after challenge each rat is sacrificed. A section of skin that includes the four sensitizing injection sites is removed.
Reaction is indicated by a blue coloration of the site and scored on the basis of color intensity. Size of the site is also reported.
Data is reported as the arithmetic mean score of a specific site for that group of five animals; the size of the spot is also reported as the mean for the group.
The relation between dilution of antibody and mean spot diameters approximates a straight line which is constructed by the method of least squares for the control animals. The maximum antibody concentration is set as "100% reactivity", with the extrapolated "zero" antibody concentration being 0%. Using this line the diameter at the highest antibody concentrations in any treated group is expressed as a percent of the control, i.e. "% inhibition." The treatment is judged "active" if the inhibition is 50% or greater.

Cn1c2ccccc2c2oc(C(=O)O)cc(=O)c21 [Example 5, 4,5-dihydro-5-methyl-4-oxopyrano[3,2-b]indole-2-carboxylic acid]
% Inhibition (1.0 mg/kg I.P.): 30%
% Inhibition (5.0 mg/kg I.P.): 100%
% Inhibition (10.0 mg/kg I.P.): 100%
% Inhibition (25.0 mg/kg I.P.): 100%
antiallergic activity in passive cutaneous anaphylaxis (male rats, i.p. 30 minutes prior to challenge): highly effective as an antiallergic
